pKd: −log10 of the molar value. Read-outs that look alike come from different tables or passages of the source.
How the values were obtained:
CCL17 = biological target: T1, CCL17 (Homo sapiens, UniProt Q92583); assay: Inhibition of intracellular calcium response (INDO-1) induced by CCL17 in HEK 293 cells expressing CCR4; assay type: cell-based; settings: compound concentration not given
T1 construct: host or cells: HEK 293 cells expressing EGFP-CCR4 (and Gqi5)
T1 sequence (Q92583 24-94): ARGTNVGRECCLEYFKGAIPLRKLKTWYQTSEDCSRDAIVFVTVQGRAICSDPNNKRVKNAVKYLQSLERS
Procedure: In order to enable an easy recording of the responses associated to the CCR4 receptor, the cDNA which allows its expression is cloned in the plasmid pIRES (ClonTech) in fusion with the GFP protein, according to Vollmer et al. (1999), which enables to easily measure the expression of the chimeric EGFP-CCR4 receptor. HEK 293 cells (ATCC) are cultured in minimal essential medium MEM (Invitrogen) in the presence of 10% of fetal calf serum (Gibco-BRL), 100 U/mL of penicillin (Invitrogen), 100 αg/mL of streptomycin (Invitrogen) and 2 mM of L-glutamine (Invitrogen) at 37° C. in water-saturated atmosphere and containing 5% of 002. The cells are transfected according to the calcium phosphate precipitate method of Chen ant Okayama, 1986, and the cells having incorporated the expression plasmid are selected with 600 αg/mL of geneticin G-418 (PAA) for 5 weeks. The clones are selected after having been characterized by fluorescence microscopy and cytometric analysis by FACS (fluorescence assisted cell sorting). In order to enable an easy recording of the cell responses associated to the CCR4 receptor, we modify its natural coupling to the inhibition of AMPc production to a coupling to the phospholipase C which enables calcium measurements. We produce for this purpose the chimeric protein Gqi5 by directed mutagenesis of the 5 las amino acids of Gq replaced by their homologues of Gi. The cells expressing the CCR4 receptor are transfected with the plasmid pCNA3.1 in which the cDNA encoding Gqi5 has been incorporated. The recordings of calcium responses are performed the day after de transfection. The cells are loaded with a fluorescent calcium indicator, INDO-1, according to the protocol provided by the provider (Molecular probes), distributed in microplate wells and placed in a fluorescence reader-pipettor (FlexStation, Molecular devices). Intracellular calcium elevation is measured by fluorescence intensity change at 401 and 475 nm (excitation 355 nm). Measure points are recorded every 5 s for 150 s for each well. The molecules are tested in the presence of 5 nM of chemokine CCL22 (commercial). […] The response develops in a few seconds and fades with time for reaching the return in approximately 2 minutes for a chemokine CCL22 concentration of 5 to 10 nM in HEK 293 cells expressing CCR4. If the molecules to be tested are preincubated with chemokine [CK+N] and if the mixture is added to the cells, we observe a strong decrease in the amplitude of the response if the molecule to be tested is a neutralizing ligand of the chemokine. Conversely, when the neutralizing ligand is preincubated with the cells expressing the receptor [CKR+N] we observe a much smaller decrease of the amplitude of the response. Analysis of the molecules selectivity is carried out by measuring the inhibition of the response evoked by other chemokines on their respective receptors thus, in FIG. 3, the molecules have been tested on the pairs CCL2/CCR2, CCL3/CCR5, CCL17/CCR4, CCL22/CCR4, […], CXCL10/CXCR2, CXCL11/CXCR3, CXCL12/CXCR4.

CCL22 [1] = biological target: T2, CCL22 (Homo sapiens, UniProt O00626); assay: Inhibition of intracellular calcium response (INDO-1) induced by CCL22 in HEK 293 cells expressing EGFP-CCR4 and Gqi5; assay type: cell-based; set-up: purchased; host or cells: HEK 293 cells stably expressing EGFP-CCR4, transiently transfected with Gqi5; settings: HEK 293 cells expressing CCR4; 5 nM CCL22; compound concentration not given
T2 sequence (O00626 25-93): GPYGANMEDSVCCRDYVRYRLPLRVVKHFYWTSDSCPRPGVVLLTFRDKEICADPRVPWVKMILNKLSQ
Procedure: In order to enable an easy recording of the responses associated to the CCR4 receptor, the cDNA which allows its expression is cloned in the plasmid pIRES (ClonTech) in fusion with the GFP protein, according to Vollmer et al. (1999), which enables to easily measure the expression of the chimeric EGFP-CCR4 receptor. HEK 293 cells (ATCC) are cultured in minimal essential medium MEM (Invitrogen) in the presence of 10% of fetal calf serum (Gibco-BRL), 100 U/mL of penicillin (Invitrogen), 100 αg/mL of streptomycin (Invitrogen) and 2 mM of L-glutamine (Invitrogen) at 37° C. in water-saturated atmosphere and containing 5% of 002. The cells are transfected according to the calcium phosphate precipitate method of Chen ant Okayama, 1986, and the cells having incorporated the expression plasmid are selected with 600 αg/mL of geneticin G-418 (PAA) for 5 weeks. The clones are selected after having been characterized by fluorescence microscopy and cytometric analysis by FACS (fluorescence assisted cell sorting). In order to enable an easy recording of the cell responses associated to the CCR4 receptor, we modify its natural coupling to the inhibition of AMPc production to a coupling to the phospholipase C which enables calcium measurements. We produce for this purpose the chimeric protein Gqi5 by directed mutagenesis of the 5 las amino acids of Gq replaced by their homologues of Gi. The cells expressing the CCR4 receptor are transfected with the plasmid pCNA3.1 in which the cDNA encoding Gqi5 has been incorporated. The recordings of calcium responses are performed the day after de transfection. The cells are loaded with a fluorescent calcium indicator, INDO-1, according to the protocol provided by the provider (Molecular probes), distributed in microplate wells and placed in a fluorescence reader-pipettor (FlexStation, Molecular devices). Intracellular calcium elevation is measured by fluorescence intensity change at 401 and 475 nm (excitation 355 nm). Measure points are recorded every 5 s for 150 s for each well. The molecules are tested in the presence of 5 nM of chemokine CCL22 (commercial). […] The response develops in a few seconds and fades with time for reaching the return in approximately 2 minutes for a chemokine CCL22 concentration of 5 to 10 nM in HEK 293 cells expressing CCR4. If the molecules to be tested are preincubated with chemokine [CK+N] and if the mixture is added to the cells, we observe a strong decrease in the amplitude of the response if the molecule to be tested is a neutralizing ligand of the chemokine. Conversely, when the neutralizing ligand is preincubated with the cells expressing the receptor [CKR+N] we observe a much smaller decrease of the amplitude of the response. The apparent affinity of the GPN136 molecules is determined by the establishment of a dose-effect relationship of the inhibition of the calcium response as presented in FIG. 2 and the results obtained are reported in table 1.

CCL22 [2] = biological target: T2, CCL22; assay: Interaction affinity by fluorescence extinction of tryptophan residues of CCL22; assay type: binding; settings: for Fluorescence extinction of CCL22 (tryptophan intrinsic fluorescence): excitation 285 nm, emission 300-400 nm, FIG. 4; for pKd: CCL22 1.5 μm, HEPES buffer without albumin, 20° C., biphasic titration curve
Procedure: Briefly: the fluorescence measurements are carried out on a spectrofluorimeter Fluorolog 3 (JobinYvon/Spex) in a quartz cuvette. CCL22 (1.5 μm (HEPES buffer without albumin) in 1 mL final volume) is excited at 285 nm and its emission spectrum is recorded between 300 and 400 nm after each addition of an aliquot of molecule to be tested (1 μm). The measurements are carried out at 20° C. and the solutions are stirred using a magnetic stir bar. The recorded emission spectra are corrected by subtraction of the emission spectrum of the compound to be tested alone.

Hacat cells [3] = assay: Human keratinocyte migration assay (in vitro wound-healing test in a cell monolayer, scratch, IncuCyte); assay type: cell-based; settings: 100 ng/ml CCL22, 72 h, mitomycin 1 μg/ml, FIG. 5
Excerpt: The activity of the GPN 136 molecule has been evaluated in a human keratinocytes migration assay performed according to an in vitro wound-healing test in a cell monolayer. It is actually known that, in these chronic pathologies, an important cell migration may promote de formation of pruritus, one of the signs of dermatosis. The immortalized human keratinocytes obtained from the DKFZ (Heidelberg, Germany) are cultivated in Dulbecco medium modified by Eagle (DMEM, Invitrogen) supplemented with 10% of fetal calf serum (Gibco-BRL) and 100 U/ml of penicillin (Invitrogen), 100 μg/ml of streptomycin (Invitrogen) and 2 mM of L glutamine (Invitrogen) at 37° C. and 5% of CO2. The wells of a culture plate of 24 well are inoculated with 200,000 cells and the culture is maintained until formation of a confluent cell monolayer. The cell monolayer is then damaged by performing a linear gap (scratch) using a sterile pipette head of 0.1-10 μL. […] The effect of the molecules alone is also recorded in different wells. […]
The culture plates are arranged in the IncuCyte apparatus which records the growth on the cell monolayer by transmitted imaging in cell culture conditions (37° C., 5% CO2, water-saturated atmosphere) for 72 h. […] Healing is defined (quantified) as the ratio of the width of the scar at time t and time 0. […]

Hacat cells [4] = assay: Metabolic activity test (WST-1 assay), in vitro cytotoxic activity; assay type: cell-based, human; settings: 0.3 μM, 10 μM or 30 μM, 72 hours, FIG. 7
Excerpt: The metabolic activity test is a colorimetric test (WST-1 assay—Ozyme) based on the measurement of the activity of the mitochondrial enzyme succinate-tetrazolium reductase cleaving the tetrazolium salt WST-1 ((4-[3-(4-Iodophenyl)-2-(4-nitrophenyl)-2H-5-tetrazolio]-1,3 benzene disulfonate)) in a water-soluble derivative called formazan, a dye which absorbs light in the range of 420-480 nm. Hacat cells are distributed at the rate of 200,000 cells per well in a culture plate of 24 wells, in a final volume of 500 μL. They are cultured for 24 hours before adding mitomycin C (1 μg/ml) and the compound to be tested. The culture plate is incubated for 72 hours at 37° C., 5% CO2, in water-saturated atmosphere. […] The plates are stirred to homogenize the color in the wells and the absorbance is measured at 450 nm in the multiwell-plate reader. […] As enzymatic activity requires cellular integrity, the absorbance will be all the stronger as the metabolic state of the cells is good.
In vitro cytotoxic activity: the Hacat cell cultures are treated with different concentrations of molecule: 0.3 μM (dark gray bars), 10 μM (light gray bars) or 30 μM (white bars) of GPN 136 and GPN 025 molecules. The activity of the mitochondrial enzyme formazan-reductase is recorded using the chromogenic substrate WST-1 which turns into a colored product, called formazan, detected at 450 nm.

Compound	Inhibition of calcium responses induced by CCL17 (%) (CCL17)	Inhibition of calcium responses induced by CCL22 (%) (CCL22 [1])	also measured
CC(=O)Oc1ccccc1C(=O)O [Acetylsalicylic acid, reference compound]	0	0	–
COc1cc2nc(N3CCC(N4CCCCC4)CC3)nc(NC3CCCCCC3)c2cc1OC [C-021, reference compound]	–	–	Fluorescence extinction of CCL22 (tryptophan intrinsic fluorescence) (CCL22 [2]): no signal
O=C(O)c1ccccc1O [GPN0001207]	0	0	–
O=C(OCC(O)COC(=O)c1ccccc1O)c1ccccc1O [GPS008504]	0	10 ± 5	–

The next lines start with results.

Inhibition of calcium responses induced by CCL17 (%) (CCL17)	Inhibition of calcium responses induced by CCL22 (%) (CCL22 [1])	Compound	also measured
0	37 ± 6	O=C(OCC(O)CO)c1ccccc1O (stereo in doubt) [GPS008505, (R)-2,3-dihydroxypropyl 2-hydroxybenzoate]	–
0	40 ± 5	O=C(OCC(O)CO)c1ccccc1O (stereo in doubt) [GPS008506, (S)-2,3-dihydroxypropyl 2-hydroxybenzoate]	–
0	35 ± 8	O=C(OCC(O)CO)c1ccccc1O (stereo not shown) [GPN136, 2,3-dihydroxypropyl 2-hydroxybenzoate]	Effect on CCL22-accelerated cell migration (Hacat cells [3]): abolished; Effect on mitochondrial enzymatic activity / cellular metabolism (WST-1, 450 nm) (Hacat cells [4]): does not affect enzymatic activity; pKd (CCL22 [2]; read-out: KD, second site): 4.28; pKd (CCL22 [2]; read-out: KD, site of high affinity): > 7.30; Fluorescence extinction of CCL22 (tryptophan intrinsic fluorescence) (CCL22 [2]): fluorescence extinction of CCL22 is observed
0	0	O=C(OC[C@@H](O)CO)c1ccccc1 [GPS008507]	–
0	0	O=C(OC[C@H](O)CO)c1ccccc1 [GPS008508]	–

Reference: patent publication US20170281653A1, “DERMOCOSMETIC OR PHARMACEUTICAL USE OF A COMPOSITION CONTAINING AT LEAST ONE INHIBITOR OF CERTAIN CHEMOKINES” (GREENPHARMA, priority 2014, published 2017)
